1 substance from patent US10767179B2, “MicroRNA composition for the treatment of neuroblastoma” (THE BOARD OF REGENTS OF THE UNIVERSITY OF TEXAS SYSTEM, priority 2014, dated 2020) can be followed below.

Assay type in all cases: cell-based
One data set deals with CDK4. The data set can be described thus: Western blot of endogenous CDK4 protein. The note with it: miRNA overexpression, 4 days. An excerpt: (§1) FIG. 7A-7F. Validation of CDK4 and STAT3 as direct targets that mediate the differentiation-inducing function of miR-506-3p and miR-124-3p. (A) The predicted interactions between miR-506-3p/miR-124-3p and the target sites in the 3′UTR of STAT3 and CDK4 rnRNAs. The seed sequences are underlined. (SEQ ID NOS: 1, 2, 18, 19, 20, 21) (B-C) Validation of the target sites of miR-506-3p and miR-124-3p in the 3′UTRs of (B) CDK4 and (C) STAT3 by luciferase reporter assay. BE(2)-C cells were co-transfected with the indicated vectors and miRNA mimics or control oligo. After 72 h of transfection, cells were lysed and luciferase activity was measured. […] Cells were transfected as above for 4 days, and protein levels were measured by Western blots. […] Cells were transfected with the indicated oligos, and neurite lengths were measured as above after 4 days transfection. Shown are representative cell images analyzed to define neurites and cell body areas (G) and quantification of neurite length under the indicated treatment conditions (H). **, p<0.01; *** , p<0.001; ****, p<0.0001.
(§2) Western Blots. […] Protein concentration was determined using the Pierce BCA assay (Thermo Fisher Scientific). […] Bound antibodies were detected with secondary antibodies conjugated with horseradish peroxidase (HRP) visualized by enhanced chemiluminescent (ECL) substrate (Pierce).

The subject of data set [1] is BE(2)-C cells. The data set can be described thus: Endogenous miRNA expression by qRT-PCR in differentiated cells. The note with it: differentiated BE(2)-C cells. Here is the method: Mrna And Mirna Expression. Total RNA was isolated as previously described (Du et al., Mol Cancer Res, 2009, 7(8):1234-43). mRNA expression profiling was done using the Illumina mRNA WG-6 v3 microarray platform. miRNA expression was measured by qRT-PCR using TaqMan microRNA Assays (Life Technologies) with average expression of RNU44 RNA, RNU19 RNA, GAPDH mRNA and 18s rRNA used as controls for normalizing RNA loading.

Data set [2] concerns BE(2)-C cells. In words: High-content screen: detection and quantification of neurite outgrowth. To be noted: 4 days, dose-dependent, vs 0 nM.
Data set [3] has as its system BE(2)-C cells. Described as above. Also noted: key: neurite length normalized to the mean of its plate. The note with it: 25 nM miRNA mimic, 4 days transfection, normalized to plate mean. How it is done:
FIG. 2A-2C. HCS screening of miRNA mimics identifies miRNAs that induce neurite outgrowth in BE(2)-C cells. (A-B) 2,500 cells were reverse-transfected with 25 nM miRNA mimics in 96-well plates. After 4 days transfection, relative neurite lengths were quantified as above. (A) The distribution of post-normalized neurite length measurements (grey histogram) for individual miRNA mimics from the screen and the fitted Gamma distribution curve (␣=3.27, ┘=0.444) (B) Correlation between two independent neurite length measurements for one library plate. Cells were transfected with 25 nM mimics in two independent 96-well plates. Normalized neurite lengths were measured as above. Correlation of neurite length between the two plates was analyzed using two-tailed Pearson Correlation with p<0.05 considered significant. (C) The distribution of the neurite lengths for untreated BE(2)-C cells. 2,500 Cells were plated into each well in 96 well plates. After 4 days of culture, neurite lengths were analyzed as above. Shown are the neurite length distribution histogram, the empirical density curve, and the fitted Gamma distribution curve (␣=30.23, ␣=0.033).
Detection and Quantification of Neurite Outgrowth. Cells were plated and treated in 96-well plates. For detecting neurite outgrowth, cells were placed into ZOOM IncuCyte Imaging System (Essen BioScience) and cell images were taken under 20× microscopic magnification. For detecting neurite outgrowth in a time-dependent manner, cell images were taken every 6 h. The neurite lengths associated with each treatment were calculated using the neurite definition defined for each specific cell line using the NeuroTrack system (Essen BioScience).
Analysis of HCS Data. The relative neurite length associated with cells in each well on the screen plates was determined as above. In order to allow for plate-to-plate comparison, neurite length associated with each well in each plate was first internally normalized to the mean of the corresponding plate, and multiple screen plates were then aggregated together to generate the neurite length distribution. The data were then further analyzed to determine the distribution of the unaffected cells as described below, and to identify differentiation-inducing miRNA mimics.
Statistical Analysis. For HCS, p-value for neurite length associated with each miRNA mimic was evaluated by assuming the distribution of neurite lengths follows Gamma distribution, and false Discovery Rate (FDR) was determined by Benjamini-Hochberg correction method for multiple tests (Benjamin, Journal of the Royal Statistical Society Series B (Methodological), 1995, 57(1):12). […] For all other conditions, the statistical significance for each treatment was determined using t-test by comparing the treatment group with control, with p<0.05 considered statistically significant.

The next data set deals with STAT3. The data set can be described thus: Western blot of endogenous STAT3 protein. The note with it: miRNA overexpression, 4 days.
Text: as §1, §2
In general terms: A western blot detects proteins with antibodies after separation by electrophoresis.

Data set [4] deals with BE(2)-C cells. The data set can be described thus: Colony Formation Assay. The note with it: 25 nM mimic, 14 days. Here is the method: Colony Formation Assay. Cells were transfected as specified and cultured overnight. 500 cells were re-plated in 10 cm dishes. After 14 days, colonies were visualized by staining with 1% crystal violet. Colony numbers and sizes were analyzed using Image J (NIH, Bethesda, Md.).

The subject of data set [5] is BE(2)-C cells. The data set can be described thus: Cell Viability Assay (CellTiter-Glo). To be noted: transfected with mimic for 4 days. Here is the method: Cell Viability Assay. Cells were plated in 96-well format and treated as specified. After culturing for 120 h, cell viability was determined using the CellTiter-Glo Luminescent Cell Viability Assay (Promega).
(In general: Cellular ATP, detected with luciferase, serves as a proxy for viable cell number.)

For the substance “hsa-miR-506-3p: miRNA mimic (Dharmacon), mature sequence UAAGGCACCCUUCUGAGUAGA (SEQ ID NO: 1) (UAAGGCACCCUUCUGAGUAGA(1); as printed in the source, key not given here)”, the “Endogenous CDK4 protein expression level” value with CDK4 is “down-regulate”. In the data set on BE(2)-C cells [1], the “Overexpression of the endogenous miRNA in differentiated cells” value is recorded as 380.1±48.4 fold. Besides, the “Concentration at which induction of neurite outgrowth is significant” value in the data set on BE(2)-C cells [2] is listed as 0.1 nM. The “Neurite length (mean ± SD)” value in the data set on BE(2)-C cells [3] stood at 10.04 ± 3.41. For the same substance, the “Endogenous STAT3 protein expression level” value with STAT3 is reported as “down-regulate”. Moreover, the Colony formation result in the data set with BE(2)-C cells [4] is “significantly reduce the ability of BE(2)-C to form colonies”. Besides, the “Cell viability when reaching plateau” value in the data set on BE(2)-C cells [5] amounted to 6.3±0.3%.
